{
  "source": "ChEMBL document CHEMBL5696441",
  "about": "(Nat Chem Biol, 2011)",
  "key": {"[1]": {"molecular_target": "Serine/threonine-protein kinase TAO1 (Homo sapiens) (UniProt Q7L7X3)", "experiment": "Inhibition of TAOK1 (unknown origin) assessed as remaining activity at 1 uM by Kinome scan method relative to control"}, "[2]": {"molecular_target": "Discoidin domain-containing receptor 2 (Homo sapiens) (UniProt Q16832)", "experiment": "Inhibition of DDR2 (unknown origin) assessed as remaining activity at 1 uM by Kinome scan method relative to control"}, "[3]": {"molecular_target": "Serine/threonine-protein kinase Nek5 (Homo sapiens) (UniProt Q6P3R8)", "experiment": "Inhibition of NEK5 (unknown origin) assessed as remaining activity at 1 uM by Kinome scan method relative to control"}, "[4]": {"system": "Proto-oncogene tyrosine-protein kinase receptor Ret (Homo sapiens), P07949 [M918T]", "experiment": "Inhibition of RET M918T (unknown origin) assessed as remaining activity at 1 uM by Kinome scan method relative to control"}, "[5]": {"molecular_target": "Citron Rho-interacting kinase (Homo sapiens) (UniProt O14578)", "experiment": "Inhibition of CIT (unknown origin) assessed as remaining activity at 1 uM by Kinome scan method relative to control"}, "[6]": {"system": "Tyrosine-protein kinase ABL1 (Homo sapiens), P00519 [G250E]", "experiment": "Inhibition of human ABL1 G250E mutant assessed as residual activity at 1 uM using Poly(Ala,Glu,Lys,Tyr)6:2:5:1 as substrate in presence of 33P-ATP by ProQinase assay relative to control"}, "[7]": {"experiment": "Anti-inflammatory activity against human derived high respond PBMC cells assessed as inhibition in stimulated IL-1beta cytokine release incubated for 2 hrs in the presence of LPS/SEB/aCD28 by Luminex based sandwich immunoassay", "format": "functional, cell-based"}, "[8]": {"molecular_target": "Serine/threonine-protein kinase 25 (Homo sapiens) (UniProt O00506)", "sequence (O00506 whole entry, looked up)": "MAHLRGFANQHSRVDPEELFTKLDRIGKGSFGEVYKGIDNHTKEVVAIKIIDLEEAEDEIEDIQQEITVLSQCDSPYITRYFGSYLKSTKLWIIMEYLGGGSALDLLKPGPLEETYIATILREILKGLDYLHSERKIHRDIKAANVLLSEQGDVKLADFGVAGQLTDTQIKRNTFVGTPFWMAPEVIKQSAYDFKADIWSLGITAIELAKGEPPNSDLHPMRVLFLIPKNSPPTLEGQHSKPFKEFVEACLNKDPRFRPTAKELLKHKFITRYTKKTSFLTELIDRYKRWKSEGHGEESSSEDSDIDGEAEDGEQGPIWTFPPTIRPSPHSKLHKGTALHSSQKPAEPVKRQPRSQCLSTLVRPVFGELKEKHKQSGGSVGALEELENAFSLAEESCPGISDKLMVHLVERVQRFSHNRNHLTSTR", "experiment": "Inhibition of human STK25 assessed as residual activity at 1 uM using casein as substrate in presence of 33P-ATP by ProQinase assay relative to control"}, "[9]": {"molecular_target": "T1, Aurora kinase C (Homo sapiens) (UniProt Q9UQB9)", "T1 sequence (whole entry)": "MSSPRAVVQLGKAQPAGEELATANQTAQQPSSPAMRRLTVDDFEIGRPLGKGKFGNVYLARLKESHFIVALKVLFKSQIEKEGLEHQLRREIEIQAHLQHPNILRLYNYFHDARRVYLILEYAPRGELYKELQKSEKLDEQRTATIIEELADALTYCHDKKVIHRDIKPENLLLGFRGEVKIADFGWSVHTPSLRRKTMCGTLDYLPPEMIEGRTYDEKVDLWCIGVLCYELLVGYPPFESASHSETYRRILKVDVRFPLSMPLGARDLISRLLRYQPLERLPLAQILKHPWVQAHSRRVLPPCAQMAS", "experiment": "Inhibition of human AuroraC assessed as residual activity at 1 uM using bio-4xCHKT as substrate in presence of 33P-ATP by ProQinase assay relative to control"}, "[10]": {"molecular_target": "Dual specificity mitogen-activated protein kinase kinase 1 (Homo sapiens) (UniProt Q02750)", "experiment": "Inhibition of human MEK1 assessed as residual activity at 1 uM using ERK2-KR as substrate in presence of 33P-ATP by ProQinase assay relative to control"}, "[11]": {"molecular_target": "Platelet-derived growth factor receptor alpha (Homo sapiens) (UniProt P16234)", "sequence (P16234 whole entry)": "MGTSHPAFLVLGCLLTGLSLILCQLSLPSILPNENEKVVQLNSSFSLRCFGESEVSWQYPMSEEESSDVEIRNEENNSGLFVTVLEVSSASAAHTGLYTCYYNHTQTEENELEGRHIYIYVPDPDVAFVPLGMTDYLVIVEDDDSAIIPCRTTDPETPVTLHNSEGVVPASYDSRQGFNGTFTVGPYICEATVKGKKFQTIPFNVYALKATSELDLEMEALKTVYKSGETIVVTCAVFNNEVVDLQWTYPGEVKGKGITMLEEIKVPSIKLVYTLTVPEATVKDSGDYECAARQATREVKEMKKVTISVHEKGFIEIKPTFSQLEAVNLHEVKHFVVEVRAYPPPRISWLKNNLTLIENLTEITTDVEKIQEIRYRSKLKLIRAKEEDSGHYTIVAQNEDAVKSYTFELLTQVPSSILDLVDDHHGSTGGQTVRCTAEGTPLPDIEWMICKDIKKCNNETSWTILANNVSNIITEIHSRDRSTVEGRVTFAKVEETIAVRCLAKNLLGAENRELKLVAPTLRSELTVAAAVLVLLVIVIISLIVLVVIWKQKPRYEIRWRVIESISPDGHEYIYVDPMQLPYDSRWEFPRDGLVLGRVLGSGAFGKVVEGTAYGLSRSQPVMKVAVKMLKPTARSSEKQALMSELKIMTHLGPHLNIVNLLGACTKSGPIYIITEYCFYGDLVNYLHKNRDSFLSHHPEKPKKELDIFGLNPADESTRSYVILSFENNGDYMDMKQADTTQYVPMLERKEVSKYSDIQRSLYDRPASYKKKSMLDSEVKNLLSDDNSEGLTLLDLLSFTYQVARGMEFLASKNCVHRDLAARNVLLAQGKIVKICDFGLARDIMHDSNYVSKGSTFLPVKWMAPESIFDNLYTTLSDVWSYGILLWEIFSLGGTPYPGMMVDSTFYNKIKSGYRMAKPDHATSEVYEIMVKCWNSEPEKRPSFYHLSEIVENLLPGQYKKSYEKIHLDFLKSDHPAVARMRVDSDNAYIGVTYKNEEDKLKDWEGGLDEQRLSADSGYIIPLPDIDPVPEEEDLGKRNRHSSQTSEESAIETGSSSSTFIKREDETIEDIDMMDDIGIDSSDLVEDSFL", "experiment": "Inhibition of human PDGFRalpha assessed as residual activity at 1 uM using Poly(Ala,Glu,Lys,Tyr)6:2:5:1 as substrate in presence of 33P-ATP by ProQinase assay relative to control"}, "[12]": {"molecular_target": "Serine/threonine-protein kinase pim-2 (Homo sapiens) (UniProt Q9P1W9)", "sequence (Q9P1W9 whole entry, looked up)": "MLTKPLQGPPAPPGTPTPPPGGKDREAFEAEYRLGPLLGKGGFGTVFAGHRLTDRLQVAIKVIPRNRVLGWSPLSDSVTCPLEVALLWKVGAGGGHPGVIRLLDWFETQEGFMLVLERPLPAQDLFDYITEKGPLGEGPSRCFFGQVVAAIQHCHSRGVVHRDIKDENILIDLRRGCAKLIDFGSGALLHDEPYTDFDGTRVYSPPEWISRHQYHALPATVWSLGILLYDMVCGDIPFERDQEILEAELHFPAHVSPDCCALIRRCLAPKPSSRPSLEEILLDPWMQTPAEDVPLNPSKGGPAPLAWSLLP", "experiment": "Inhibition of human PIM2 assessed as residual activity at 1 uM using RBER-GSK3(14-27) as substrate in presence of 33P-ATP by ProQinase assay relative to control"}, "[13]": {"molecular_target": "Macrophage colony-stimulating factor 1 receptor (Homo sapiens) (UniProt P07333)", "sequence (P07333 whole entry)": "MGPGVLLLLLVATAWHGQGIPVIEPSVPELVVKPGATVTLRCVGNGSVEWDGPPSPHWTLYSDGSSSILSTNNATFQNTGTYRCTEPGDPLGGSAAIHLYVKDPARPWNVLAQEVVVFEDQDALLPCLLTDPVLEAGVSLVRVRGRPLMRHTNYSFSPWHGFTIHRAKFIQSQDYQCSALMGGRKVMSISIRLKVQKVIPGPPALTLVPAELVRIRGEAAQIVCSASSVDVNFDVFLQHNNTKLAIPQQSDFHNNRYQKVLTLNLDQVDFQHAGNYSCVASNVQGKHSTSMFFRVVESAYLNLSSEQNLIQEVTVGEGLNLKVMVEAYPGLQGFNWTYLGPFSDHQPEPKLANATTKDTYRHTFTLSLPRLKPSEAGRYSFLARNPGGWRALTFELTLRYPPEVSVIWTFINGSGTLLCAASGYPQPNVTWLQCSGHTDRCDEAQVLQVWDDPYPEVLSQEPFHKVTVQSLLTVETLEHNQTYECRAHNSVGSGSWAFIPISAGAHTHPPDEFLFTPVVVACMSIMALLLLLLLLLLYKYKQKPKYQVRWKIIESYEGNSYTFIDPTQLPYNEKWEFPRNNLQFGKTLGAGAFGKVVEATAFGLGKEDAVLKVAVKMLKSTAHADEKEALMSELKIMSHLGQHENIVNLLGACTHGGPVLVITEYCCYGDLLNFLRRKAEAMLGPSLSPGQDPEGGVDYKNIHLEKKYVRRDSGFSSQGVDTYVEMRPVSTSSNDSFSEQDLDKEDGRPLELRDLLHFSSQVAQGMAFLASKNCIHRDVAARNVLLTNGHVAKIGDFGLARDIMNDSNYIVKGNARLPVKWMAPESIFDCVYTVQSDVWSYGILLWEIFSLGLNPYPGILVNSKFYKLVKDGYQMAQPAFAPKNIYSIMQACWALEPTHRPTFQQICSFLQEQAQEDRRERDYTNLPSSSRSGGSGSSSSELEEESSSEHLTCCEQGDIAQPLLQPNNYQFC", "experiment": "Inhibition of CSF1R (unknown origin) assessed as remaining activity at 1 uM by Kinome scan method relative to control"}, "[14]": {"molecular_target": "STE20-like serine/threonine-protein kinase (Homo sapiens) (UniProt Q9H2G2)", "sequence (Q9H2G2 whole entry, looked up)": "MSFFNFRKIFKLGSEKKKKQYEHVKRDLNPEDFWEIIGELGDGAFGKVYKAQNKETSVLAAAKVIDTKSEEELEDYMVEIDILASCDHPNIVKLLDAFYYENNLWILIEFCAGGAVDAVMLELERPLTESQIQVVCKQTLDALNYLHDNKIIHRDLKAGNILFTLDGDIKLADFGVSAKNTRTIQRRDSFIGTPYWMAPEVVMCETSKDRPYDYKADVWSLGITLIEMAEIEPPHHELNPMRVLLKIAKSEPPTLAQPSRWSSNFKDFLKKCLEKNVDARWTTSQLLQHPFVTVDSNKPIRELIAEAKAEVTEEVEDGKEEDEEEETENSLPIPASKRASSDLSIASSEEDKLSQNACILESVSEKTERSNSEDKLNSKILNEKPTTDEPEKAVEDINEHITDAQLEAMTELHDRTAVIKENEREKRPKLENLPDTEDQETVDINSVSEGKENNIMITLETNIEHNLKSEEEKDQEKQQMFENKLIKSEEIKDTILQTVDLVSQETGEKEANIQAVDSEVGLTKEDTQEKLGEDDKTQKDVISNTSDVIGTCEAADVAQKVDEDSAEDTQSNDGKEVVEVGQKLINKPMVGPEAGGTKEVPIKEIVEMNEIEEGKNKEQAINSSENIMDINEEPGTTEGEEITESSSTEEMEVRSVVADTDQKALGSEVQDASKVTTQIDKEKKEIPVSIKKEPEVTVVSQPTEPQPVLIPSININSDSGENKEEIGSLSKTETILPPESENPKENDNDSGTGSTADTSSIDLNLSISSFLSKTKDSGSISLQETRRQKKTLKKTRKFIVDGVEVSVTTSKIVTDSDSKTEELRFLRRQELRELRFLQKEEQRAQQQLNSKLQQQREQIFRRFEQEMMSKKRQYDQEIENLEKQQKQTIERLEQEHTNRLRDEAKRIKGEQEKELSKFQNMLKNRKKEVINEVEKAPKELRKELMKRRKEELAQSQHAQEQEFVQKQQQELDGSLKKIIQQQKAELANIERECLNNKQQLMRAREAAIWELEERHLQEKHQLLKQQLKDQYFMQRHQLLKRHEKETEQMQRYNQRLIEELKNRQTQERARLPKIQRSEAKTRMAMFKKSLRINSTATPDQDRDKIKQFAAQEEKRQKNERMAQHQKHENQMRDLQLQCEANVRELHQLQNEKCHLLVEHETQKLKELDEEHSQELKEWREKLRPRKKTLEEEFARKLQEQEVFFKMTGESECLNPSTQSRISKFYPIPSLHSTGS", "experiment": "Inhibition of human SLK assessed as residual activity at 1 uM using RB-S6P as substrate in presence of 33P-ATP by ProQinase assay relative to control"}, "[15]": {"molecular_target": "Dual specificity protein kinase CLK1 (Homo sapiens) (UniProt P49759)", "experiment": "Inhibition of CLK1 (unknown origin) assessed as remaining activity at 1 uM by Kinome scan method relative to control"}, "[16]": {"molecular_target": "Mitogen-activated protein kinase 6 (Homo sapiens) (UniProt Q16659)", "sequence (Q16659 whole entry)": "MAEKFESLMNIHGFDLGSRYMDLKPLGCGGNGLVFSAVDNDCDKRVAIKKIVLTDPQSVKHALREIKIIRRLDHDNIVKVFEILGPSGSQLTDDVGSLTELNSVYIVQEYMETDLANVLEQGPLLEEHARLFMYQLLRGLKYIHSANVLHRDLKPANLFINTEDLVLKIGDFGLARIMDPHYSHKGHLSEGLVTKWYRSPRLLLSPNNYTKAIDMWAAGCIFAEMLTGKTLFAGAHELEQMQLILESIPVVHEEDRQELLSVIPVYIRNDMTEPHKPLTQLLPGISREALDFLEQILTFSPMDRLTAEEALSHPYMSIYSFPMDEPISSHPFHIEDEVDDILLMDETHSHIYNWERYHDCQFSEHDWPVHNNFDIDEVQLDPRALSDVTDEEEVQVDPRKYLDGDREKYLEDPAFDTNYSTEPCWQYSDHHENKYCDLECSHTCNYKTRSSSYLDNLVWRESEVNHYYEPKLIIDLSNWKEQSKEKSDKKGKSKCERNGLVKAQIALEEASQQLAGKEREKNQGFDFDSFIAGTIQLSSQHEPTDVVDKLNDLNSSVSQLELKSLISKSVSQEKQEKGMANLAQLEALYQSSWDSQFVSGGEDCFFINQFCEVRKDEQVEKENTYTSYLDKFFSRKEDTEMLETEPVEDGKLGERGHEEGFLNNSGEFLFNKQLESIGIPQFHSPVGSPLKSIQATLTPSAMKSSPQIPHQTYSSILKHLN", "experiment": "Inhibition of ERK3 (unknown origin) assessed as remaining activity at 1 uM by Kinome scan method relative to control"}, "[17]": {"molecular_target": "Ephrin type-A receptor 5 (Homo sapiens) (UniProt P54756)", "experiment": "Inhibition of human EPHA5 assessed as residual activity at 1 uM using polyEY as substrate in presence of 33P-ATP by ProQinase assay relative to control"}, "[18]": {"molecular_target": "Casein kinase I isoform gamma-3 (Homo sapiens) (UniProt Q9Y6M4)", "experiment": "Inhibition of human CK1gamma3 assessed as residual activity at 1 uM using casein as substrate in presence of 33P-ATP by ProQinase assay relative to control"}, "[19]": {"molecular_target": "CDK7/Cyclin H/MNAT1 (Homo sapiens) (UniProt P51946+P50613+P51948)", "experiment": "Inhibition of human CDK7/CyclinH/MAT1 assessed as residual activity at 1 uM using RBER-CHKtide as substrate in presence of 33P-ATP by ProQinase assay relative to control", "format": "protein-complex assay"}, "[20]": {"molecular_target": "T2, Testis-specific serine/threonine-protein kinase 1 (Homo sapiens) (UniProt Q9BXA7)", "T2 sequence (whole entry)": "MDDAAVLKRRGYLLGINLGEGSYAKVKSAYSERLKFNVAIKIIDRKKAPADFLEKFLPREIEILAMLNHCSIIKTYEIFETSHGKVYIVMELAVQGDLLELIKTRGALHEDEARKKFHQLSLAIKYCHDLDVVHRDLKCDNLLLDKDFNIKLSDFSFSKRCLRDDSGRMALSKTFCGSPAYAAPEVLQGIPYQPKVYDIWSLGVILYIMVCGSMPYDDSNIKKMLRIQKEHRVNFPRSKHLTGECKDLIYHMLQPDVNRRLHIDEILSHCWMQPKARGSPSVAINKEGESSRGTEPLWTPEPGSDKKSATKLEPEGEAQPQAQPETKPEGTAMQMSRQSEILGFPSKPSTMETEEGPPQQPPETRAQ", "experiment": "Inhibition of human TSSK1 assessed as residual activity at 1 uM using RBER-CHKtide as substrate in presence of 33P-ATP by ProQinase assay relative to control"}, "[21]": {"molecular_target": "Focal adhesion kinase 1 (Homo sapiens) (UniProt Q05397)", "experiment": "Inhibition of FAK (unknown origin) assessed as remaining activity at 1 uM by Kinome scan method relative to control"}, "[22]": {"molecular_target": "Serine/threonine-protein kinase PAK 5 (Homo sapiens) (UniProt Q9P286)", "experiment": "Inhibition of human PAK7 assessed as residual activity at 1 uM using bio-4xCHKT as substrate in presence of 33P-ATP by ProQinase assay relative to control"}},
  "note": "pIC50: −log10 of the molar value.",
  "data": [
    {"smiles": "O=C1c2ccc(Nc3ccc(F)cc3F)cc2CCc2ccc(OC[C@H](O)CO)cc21", "note": "[Skepinone-L]", "values": [
      {"measurement": "Activity", "setting": "[1]", "value": 100, "unit": "%"},
      {"measurement": "Activity", "setting": "[2]", "value": 100, "unit": "%"},
      {"measurement": "Activity", "setting": "[3]", "value": 100, "unit": "%"},
      {"measurement": "Activity", "setting": "[4]", "value": 100, "unit": "%"},
      {"measurement": "Activity", "setting": "[5]", "value": 92, "unit": "%"},
      {"measurement": "Activity", "setting": "[6]", "value": 97, "unit": "%"},
      {"measurement": "pIC50", "setting": "[7]", "value": 7.52},
      {"measurement": "Activity", "setting": "[8]", "value": 100, "unit": "%"},
      {"measurement": "Activity", "setting": "[9]", "value": 85, "unit": "%"},
      {"measurement": "Activity", "setting": "[10]", "value": 79, "unit": "%"},
      {"measurement": "Activity", "setting": "[11]", "value": 91, "unit": "%"},
      {"measurement": "Activity", "setting": "[12]", "value": 97, "unit": "%"},
      {"measurement": "Activity", "setting": "[13]", "value": 92, "unit": "%"},
      {"measurement": "Activity", "setting": "[14]", "value": 39, "unit": "%"},
      {"measurement": "Activity", "setting": "[15]", "value": 99, "unit": "%"},
      {"measurement": "Activity", "setting": "[16]", "value": 100, "unit": "%"},
      {"measurement": "Activity", "setting": "[17]", "value": 132, "unit": "%"},
      {"measurement": "Activity", "setting": "[18]", "value": 95, "unit": "%"},
      {"measurement": "Activity", "setting": "[19]", "value": 107, "unit": "%"},
      {"measurement": "Activity", "setting": "[20]", "value": 90, "unit": "%"},
      {"measurement": "Activity", "setting": "[21]", "value": 100, "unit": "%"},
      {"measurement": "Activity", "setting": "[22]", "value": 87, "unit": "%"}
    ]}
  ]
}
